From patent publication EP2272817A1, “PAI-1 INHIBITOR” (Institute of Medicinal Molecular Design, Inc., priority 2008, dated 2009)

Molecular target: recombinant human PAI-1 (Homo sapiens, UniProt P05121)
Assay: Test Example 2: Human PAI-1 Inhibitory Activity (pH 7.4 HEPES buffer, 10 minutes incubation with two-chain tPA)
Type: biochemical
Set-up: purchased Molecular Innovations, Inc
Details: read-out: Inhibition Rate of PAI-1 Activity (%)
Protocol: 0.1 M HEPES, 0.1 M NaCl. 1 mM EDTA. 0.1 % Polyethylene glycol 8,000 (Hampton Research Corporation),
2 mM Dimethyldecylphoshine oxide [Apo-10] (Fluka Corporation)

Sequence of recombinant human PAI-1 (P05121 24-402): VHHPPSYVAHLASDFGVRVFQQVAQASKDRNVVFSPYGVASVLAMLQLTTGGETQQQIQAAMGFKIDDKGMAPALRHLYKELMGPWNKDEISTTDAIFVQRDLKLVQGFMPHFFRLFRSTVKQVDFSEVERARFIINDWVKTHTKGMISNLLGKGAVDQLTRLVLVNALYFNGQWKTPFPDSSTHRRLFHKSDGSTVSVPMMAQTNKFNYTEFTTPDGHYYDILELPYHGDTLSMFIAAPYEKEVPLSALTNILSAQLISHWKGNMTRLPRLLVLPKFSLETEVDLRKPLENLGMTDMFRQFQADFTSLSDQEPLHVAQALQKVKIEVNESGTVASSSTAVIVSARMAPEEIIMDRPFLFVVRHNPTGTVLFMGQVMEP

SMILES | inhibition at 1 µM | inhibition at 3 µM | inhibition at 10 µM | inhibition at 25 µM | inhibition at 0.1 µM | inhibition at 0.3 µM
CCCCOc1ccc(-c2ccc(OC(F)(F)F)cc2)cc1CCC(=O)O [Compound 407] | 14% | 41% | > 99% | 98% |  | 
CC(C)(C)c1ccc(COc2ccc(NS(=O)(=O)c3ccc(OC(F)(F)F)cc3)cc2CCC(=O)O)cc1 [Compound 415] | 41% | 98% | > 99% | > 99% |  | 
CN(C(=O)c1ccc(OC(F)(F)F)cc1)c1ccc(OCc2ccc(C(C)(C)C)cc2)c(CCC(=O)O)c1 [Compound 416] | 26% | 54% | > 99% | > 99% |  | 
CC(C)(C)c1ccc(COc2ccc(N3CCN(c4ccc(OC(F)(F)F)cc4)CC3)cc2/C=C/C(=O)O)cc1 [Compound 418] | 73% | 95% | 94% | 90% |  | 
CC(C)(C)c1ccc(COc2ccc(N3CCN(c4ccc(OC(F)(F)F)cc4)CC3)cc2CCC(=O)O)cc1 [Compound 419] | 41% | 93% | 98% | > 99% |  | 
CC(C)(C)c1ccc(COc2ccc(-c3ccc(OC(F)(F)F)cc3)cc2C(=O)O)cc1 [Compound 421] | 14% | 81% |  |  | 0% | 3%
CCCCC(CC(=O)O)c1cc(-c2ccc(OC(F)(F)F)cc2)ccc1Oc1ccc(C(C)(C)C)cc1 (stereo not drawn) [Compound 422] | 72% | > 99% |  |  | 12% | 24%
CCCCC(Nc1cc(-c2ccc(OC(F)(F)F)cc2)ccc1Oc1ccc(C(C)(C)C)cc1)C(=O)O (stereo not drawn) [Compound 423] | 74% | 96% |  |  | 1% | 1%
CCCCCOc1cc(-c2ccc(OC(F)(F)F)cc2)cc(OCCCCC)c1OCC(=O)O [Compound 424] | 38% | > 99% |  |  | 0% | 4%
CCCCCCCOc1cc(-c2ccc(OC(F)(F)F)cc2)cc(OCCCCCCC)c1OCC(=O)O [Compound 425] | > 99% |  |  |  | 17% | 54%
CCCCC(Oc1cc(Oc2ccc(C(C)(C)C)cc2)cc(-c2ccc(OC(F)(F)F)cc2)c1)C(=O)O (stereo not drawn) [Compound 426] | 95% | 97% |  |  | 10% | 29%
CC(C)(C)c1ccc(Oc2cc(OCC(=O)O)cc(-c3ccc(OC(F)(F)F)cc3)c2)cc1 [Compound 427] | 62% | 97% |  |  | 1% | 27%
CCCCN(CC(=O)O)c1cc(-c2ccc(OC(F)(F)F)cc2)ccc1Oc1ccc(C(C)(C)C)cc1 [Compound 428] | 92% | 94% |  |  | 18% | 36%
CCCCCCOc1ccc(-c2ccc(OC(F)(F)F)cc2)cc1OC(CCCCCC)C(=O)O (stereo not drawn) [Compound 429] | 93% | 95% |  |  | 7% | 9%
CCCCCCOc1cc(-c2ccc(OC(F)(F)F)cc2)ccc1OC(CCCCCC)C(=O)O (stereo not drawn) [Compound 430] | 97% | > 99% |  |  | 1% | 15%
CC(C)(C)c1ccc(Oc2ccc(Nc3ccc(OC(F)(F)F)cc3)cc2/C=C/C(=O)O)cc1 [Compound 431] | 77% | > 99% |  |  | 0% | 0%
CC(C)(C)c1ccc(Oc2ccc(Nc3ccc(OC(F)(F)F)cc3)cc2CCC(=O)O)cc1 [Compound 432] | 25% | 97% |  |  | 4% | 0%
CCCCN(CC(=O)O)c1cc(-c2ccc(OC(F)(F)F)cc2)ccc1OCCCCc1ccccc1 [Compound 433] | 41% | 98% |  |  | 13% | 6%
CC(C)(C)c1ccc(Oc2cc(-c3ccc(OC(F)(F)F)cc3)ccc2C(=O)O)cc1 [Compound 434] | 66% | > 99% |  |  | 14% | 8%
CCCN(CC(=O)O)c1cc(-c2ccc(OC(F)(F)F)cc2)ccc1Oc1ccc(C(C)(C)C)cc1 [Compound 435] | 81% | 98% |  |  | 12% | 29%
CC(C)(C)c1cccc(Oc2cc(-c3ccc(OC(F)(F)F)cc3)ccc2OCC(=O)O)c1 [Compound 436] | 63% | > 99% |  |  | 3% | 19%
CC(C)(C)c1cccc(Oc2ccc(-c3ccc(OC(F)(F)F)cc3)cc2/C=C/C(=O)O)c1 [Compound 437] | 67% | 98% |  |  | 0% | 12%

SMILES | inhibition at 1 µM | inhibition at 3 µM | inhibition at 10 µM | inhibition at 25 µM | inhibition at 0.1 µM | inhibition at 0.3 µM
CC(C)(C)c1cccc(Oc2ccc(-c3ccc(OC(F)(F)F)cc3)cc2CCC(=O)O)c1 [Compound 438] | 50% | > 99% |  |  | 13% | 11%
CC(C)(C)c1cccc(Oc2ccc(-c3ccc(OC(F)(F)F)cc3)cc2OCC(=O)O)c1 [Compound 439] | 44% | > 99% |  |  | 12% | 9%
CCCCCOc1ccc(-c2ccc(OCC(=O)O)c(Oc3ccc(C(C)(C)C)cc3)c2)cc1 [Compound 440] | 96% | > 99% |  |  | 0% | 3%
CC(C)c1ccc(-c2ccc(OCC(=O)O)c(Oc3ccc(C(C)(C)C)cc3)c2)cc1 [Compound 441] | 89% | 98% |  |  | 9% | 29%
CC(C)(C)c1ccc(Oc2cc(-c3ccc(OC(F)(F)F)cc3)ccc2NCC(=O)O)cc1 [Compound 442] | 83% | > 99% |  |  | 1% | 4%
CCCCc1ccc(-c2ccc(OCC(=O)O)c(Oc3ccc(C(C)(C)C)cc3)c2)cc1 [Compound 443] | 76% | > 99% |  |  | 7% | 8%
Cc1ccc(-c2ccc(OCC(=O)O)c(Oc3ccc(C(C)(C)C)cc3)c2)cc1 [Compound 444] | 11% | 96% |  |  | 0% | 0%
COc1ccc(-c2ccc(OCC(=O)O)c(Oc3ccc(C(C)(C)C)cc3)c2)cc1 [Compound 445] | 12% | 50% |  |  | 0% | 1%
CC(C)(C)c1ccc(Oc2cc(-c3ccc(C(C)(C)C)cc3)ccc2OCC(=O)O)cc1 [Compound 446] | 84% | > 99% |  |  | 3% | 13%
CCC(CC)Oc1ccc(-c2ccc(OCC(=O)O)c(Oc3ccc(C(C)(C)C)cc3)c2)cc1 [Compound 447] | 89% | > 99% |  |  | 4% | 11%
CSc1ccc(-c2ccc(OCC(=O)O)c(Oc3ccc(C(C)(C)C)cc3)c2)cc1 [Compound 448] | 39% | > 99% |  |  | 4% | 11%
CC(C)(C)c1ccc(Oc2cc(-c3ccc(OC(F)(F)F)cc3)ccc2/C=C\C(=O)O)cc1 [Compound 450] | 58% | 98% |  |  | 9% | 11%
CC(C)(C)c1ccc(Oc2ccc(-c3ccc(C(C)(C)C)cc3)cc2OCC(=O)O)cc1 [Compound 453] | 96% | > 99% |  |  | 4% | 15%
CCCCCOc1ccc(-c2ccc(Oc3ccc(C(C)(C)C)cc3)c(OCC(=O)O)c2)cc1 [Compound 454] | > 99% | > 99% |  |  | 11% | 17%
CC(C)(C)c1ccc(Oc2cc(-c3cc(Cl)ccc3Cl)ccc2OCC(=O)O)cc1 [Compound 455] | 93% | 99% |  |  | 9% | 20%
CC(C)(C)c1ccc(Oc2cc(-c3ccccc3OC(F)(F)F)ccc2OCC(=O)O)cc1 [Compound 456] | 70% | 98% |  |  | 7% | 13%
CC(C)(C)c1ccc(Oc2cc(-c3ccc(Cl)cc3)ccc2OCC(=O)O)cc1 [Compound 457] | 63% | > 99% |  |  | 21% | 18%
CC(C)(C)c1ccc(Oc2cc(-c3ccc(F)cc3)ccc2OCC(=O)O)cc1 [Compound 459] | 42% | 86% |  |  | 26% | 31%
CC(C)Oc1ccc(-c2ccc(OCC(=O)O)c(Oc3ccc(C(C)(C)C)cc3)c2)cc1 [Compound 460] | 63% | > 99% |  |  | 1% | 8%
CCCCOc1ccc(Oc2cc(-c3ccc(OC(F)(F)F)cc3)ccc2CCC(=O)O)cc1 [Compound 461] | 95% | 98% |  |  | 1% | 26%
CC(C)(C)c1ccc(Sc2cc(-c3ccc(OC(F)(F)F)cc3)ccc2/C=C/C(=O)O)cc1 [Compound 462] | 97% | 95% |  |  | 37% | 94%
